# Experiment: Polymerization / stability of the molecule in solution with water
# Format: physicochemical
# Conditions: industrially-available preparation placed in solution with water
# Excerpt: Solutions of industrially-available preparations (e.g. 3-(trihydroxysilyl) propyldimethyloctadecyl ammonium chloride) were placed in solution with water. It was discovered that at higher concentrations (e.g. at or above about 3 to 4 percent weight/volume) the molecules polymerize to an unsatisfactory degree, making a stable solution either impossible or heavier and unsuitable for saturating a wipe-type substrate or spraying onto a surface or substrate. […] These solutions remain stable in impregnated or saturated substrates (e.g. wipes in a liquid-tight containers) or in a bottle or other container for the solution. […] When the substrate is used to wipe, the solution with the solute remains on the wiped surface in a layer. As the solvent is dried, by evaporation or otherwise, the solute remains in a dry physical layer that remains to physically combat microbes.
compound,measurement,value
CCCCCCCCCCCCCCCCCC[N+](C)(C)CCC[Si](O)(O)O.[Cl-] [3-(trihydroxysilyl) propyldimethyloctadecyl ammonium chloride],Concentration in water at which the molecules polymerize to an unsatisfactory degree,3 to 4 percent weight/volume

# Reference: patent US8968771B2, “Articles and methods for applying antimicrobial protection” (Coeus Technology, Inc., priority 2011, dated 2015)
